According to patent US20260248881A1, “PHARMACEUTICAL COMPOSITION COMPRISING FOXM1 INHIBITOR AND IMMUNE CHECKPOINT INHIBITOR FOR PREVENTING OR TREATING CANCER” (National Cancer Center, priority 2022, published 2026):

Columns and labels:
[1] = test system: human primary coronary artery smooth muscle cells (SMCs); experiment: Cell viability assay (WST-1), SMC normal cells; type: cell-based; settings: 48 hours
Procedure: MC38 and SMC were cultured at a density of 3×10^3 cells/well in 96-well plates. The cells were treated with various concentrations of TST dissolved in the medium for 48 hours, then WST-1 reagent (MK400; Takara) was added at a concentration of 10 μL/well and cultured for 1 hour. The absorbance was measured at 450 nm for further analysis.

human H1299 or PC9 cells = experiment: Xenograft tumor model; type: in vivo, BALB/c nude mice
Procedure: Mice (n=6) were injected intraperitoneally with TST dissolved in DMSO at a dose of 17 mg/kg every 2 days before euthanasia and sacrifice. Tumor volume and body weight of the mice were measured every other day. […] Two days after the final TST injection, all mice were sacrificed, and tumor tissues were collected for immunohistochemical (IHC) staining of FOXM1 and PD-L1. The tissues were fixed in 10% neutralized formaldehyde and embedded in paraffin blocks. Tissue microarray (TMA) slides were made with a 4 mm diameter per sample and sectioned at 4 μm thickness to perform IHC with anti-FOXM1 (#20459S) or anti-PD-L1 (#13684S) (Cell Signaling Technology) antibodies. Autostainer Link48 (Dako, Agilent Technologies, Santa Clara, CA, USA) was used for analysis.
IHC staining was performed using anti-rabbit-HRP antibodies (K4003, EnVision+ HRP Labelled Polymer Anti-Rabbit, Dako, Agilent Technologies, Carpinteria, CA, USA) and 3,3′-diaminobenzidine (DAB) (K3468, DAB+ Chromogen, Dako, Agilent Technologies, Santa Clara, CA, USA) as substrates, and the sections were counterstained with hematoxylin (K8008, EnVision FLEX Hematoxylin, Dako, Agilent Technologies Singapore, Singapore). To analyze the in vivo toxicity of the tested drugs, four xenograft mice from each group were used for serum biochemical analysis (Table 2). On day 9, serum samples were collected from the mice in the control and TST-treated groups. In addition, the vital organs (liver, spleen, and kidney) were collected form mice, sectioned, and stained with H&E to monitor histopathological changes.
To investigate the effect of TST, which is a FOXM1 inhibitor, on tumor growth and PD-L1 expression in vivo, human H1299 or PC9 cells (5×10^6) were subcutaneously implanted into BALB/c nude mice (n=6 per group). When the average size of the xenografted tumor masses reached approximately 170 mm^3, TST was injected intraperitoneally into the mice at a dose of 17 mg/kg four times every 2 days (FIG. 7a). […] 2 days after the final TST treatment, the mice were sacrificed. […]

thiostrepton [TST] was tested, and the “in vitro cytotoxicity on SMC normal cells” value [1] was “no significant apoptotic cell death”, the “FOXM1 and PD-L1 expression in tumors (immunohistochemical analysis)” value (human H1299 or PC9 cells; 2 days after final TST treatment, vs control mice) was “significantly downregulated” and the tumor volume (human H1299 or PC9 cells; TST 17 mg/kg intraperitoneally four times every 2 days, vs control group) was “significant decrease in tumor volume”. The body weight (human H1299 or PC9 cells; after 9 days, TST vs control) was “no difference in body weight”.
